Where two headings read alike, the source gives them in different places.

This assay has as its system P. aeruginosa PAO1. On the set-up: MICDrug / MICDrug in combo / MIC of adjuvant in combo: unit not given beside the values. The note with it: for MICDrug: antibiotic alone. As to the method: The potential of the dilipid polymyxins to serve as an adjuvant in combination with other antibiotics was evaluated against P. aeruginosa PAO1 strain (Tables 4 and 7-12). […] Checkerboard assays were performed with the dilipid polymyxins in combination with twenty-one clinically-used antibiotics. The panel included representatives from the β-lactam, carbapenem, tetracycline, aminoglycoside and fluoroquinolone antibiotic families. Other agents that are used to treat Gram-negative bacterial infection such as fosfomycin, trimethoprim and chloramphenicol were also included. […] Fractional inhibitory concentration (FIC) index was calculated for each combination to measure potential synergism between the two agents. FIC was obtained by dividing the MIC of antibiotic/adjuvant in combination by the MIC of antibiotic/adjuvant alone, while FIC index was calculated by the summation of FIC indices for the antibiotic and adjuvant. An FIC index of ≤0.5, 0.5<x≤4, or >4 denotes for synergistic, additive or antagonistic interaction, respectively. Initially, we assessed the adjuvant properties of PMBN against the panel of 21 antibiotics.
The assay was performed on 96-well plates as previously described. Briefly, the antibiotic at study was 2-fold serially diluted along the x-axis, while the adjuvant was 2-fold serially diluted along the y-axis to create a matrix in which each well consists of a combination of both at different concentrations. Overnight grown bacterial cultures were diluted in saline to 0.5 McFarland turbidity, followed by 1:50 dilution in MHB and inoculation on each well to a final concentration of approximately 5×10^5 colony forming units/mL. Wells containing only MHB with or without bacterial cells were used as positive or negative control, respectively. […] The fractional inhibitory concentration (FIC) of the antibiotic was calculated via dividing the MIC of antibiotic in the presence of adjuvant by the MIC of antibiotic alone. Similarly, the FIC of adjuvant was calculated via dividing the MIC of adjuvant in the presence of antibiotic by the MIC of adjuvant alone. The FIC index was obtained by the summation of both FIC values. The FIC index was then interpreted as synergistic, additive, or antagonistic for values of ≤0.5, 0.5<x<4, or ≥4, respectively.

The mark [1] stands for this setting: antibiotic in combination with 1.
The mark [2] stands for this setting: antibiotic in combination with 2.
Setting [3] is: antibiotic in combination with 3.
The mark [4] stands for this setting: antibiotic in combination with 4.
Where [5] appears, read: antibiotic in combination with 5.
Setting [6] is: antibiotic in combination with PMBN.

Regarding `CC(=O)NC[C@H]1CN(c2ccc(N3CCOCC3)c(F)c2)C(=O)O1` [Linezolid, reference compound], the MICDrug is on record as 1024. Moreover, the MICDrug in combo result under setting [1] is “(64)”. Besides, under setting [2], the MICDrug in combo entry is “(1)”. Also, under setting [3], the MICDrug in combo entry is “(0.25)”. For the same molecule, under setting [4], the MICDrug in combo result is “(0.25)”. Besides, the MICDrug in combo result under setting [5] is listed as “(32)”. The MICDrug in combo entry under setting [6] was “(32)”.
Turning to `C=C[C@]1(C)C[C@@H](OC(=O)CO)[C@]2(C)[C@H](C)CC[C@]3(CCC(=O)[C@H]32)[C@@H](C)[C@@H]1O` [Pleuromutilin, reference compound], the MICDrug worked out at 512. Besides, the MICDrug in combo result under setting [1] is “(4)”. Also, the MICDrug in combo result under setting [2] is “(4)”. Moreover, under setting [3], the MICDrug in combo result was “(8)”. In addition, the MICDrug in combo entry under setting [4] is recorded as “(4)”. Besides, the MICDrug in combo result under setting [5] is “(2)”. Under setting [6], the MICDrug in combo entry is listed as “(16)”.
Regarding `C[C@@H](O)[C@H]1C(=O)N2C(C(=O)O)=C(S[C@@H]3CN[C@H](C(=O)N(C)C)C3)[C@H](C)[C@H]12` [Meropenem, reference compound], the MICDrug in combo entry under setting [1] is given as “(0.25)”; the MICDrug in combo entry under setting [2] was “(0.0625)”; the MICDrug in combo result under setting [3] was “(0.5)”; the MICDrug in combo entry under setting [4] is listed as “(0.5)”; the MICDrug in combo entry under setting [5] is listed as “(0.5)”; the MICDrug in combo result under setting [6] is recorded as “(0.125)”.
In the case of `COc1cc(Cc2cnc(N)nc2N)cc(OC)c1OC` [Trimethoprim, reference compound], the MICDrug is 128. For the same molecule, the MICDrug in combo result under setting [1] is “(16)”. In addition, the MICDrug in combo entry under setting [2] is “(8)”. Besides, the MICDrug in combo result under setting [3] is listed as “(16)”. The MICDrug in combo result under setting [4] is “(0.25)”. Further, under setting [5], the MICDrug in combo result is “(16)”. Besides, under setting [6], the MICDrug in combo entry is given as “(8)”.
Regarding `CC(C)(O/N=C(\C(=O)N[C@@H]1C(=O)N2C(C(=O)[O-])=C(C[n+]3ccccc3)CS[C@H]12)c1csc(N)n1)C(=O)O` [Ceftazidime, reference compound], the MICDrug amounted to 2. Under setting [1], the MICDrug in combo entry is on record as “(0.25)”. Further, the MICDrug in combo result under setting [2] was “(1)”. For the same molecule, the MICDrug in combo entry under setting [3] is recorded as “(1)”. Moreover, the MICDrug in combo result under setting [4] is “(0.0625)”. For the same molecule, the MICDrug in combo result under setting [5] was “(0.25)”. Further, the MICDrug in combo entry under setting [6] was “(0.25)”.
Regarding `CN(C)c1ccc(O)c2c1C[C@H]1C[C@H]3[C@H](N(C)C)C(O)=C(C(N)=O)C(=O)[C@@]3(O)C(O)=C1C2=O` [Minocycline, reference compound], the MICDrug turned out to be 16. Besides, the MICDrug in combo result under setting [1] was “(1)”. For the same molecule, the MICDrug in combo entry under setting [2] is given as “(4)”. For the same molecule, the MICDrug in combo result under setting [3] is listed as “(2)”. Also, under setting [4], the MICDrug in combo entry is on record as “(4)”. In addition, the MICDrug in combo result under setting [5] was “(2)”. In addition, the MICDrug in combo result under setting [6] is “(0.5)”.
For the molecule `C[C@H]1[C@H](NC(=O)/C(=N\OC(C)(C)C(=O)O)c2csc(N)n2)C(=O)N1S(=O)(=O)O` [Aztreonam, reference compound], the MICDrug came to 4. Also, under setting [1], the MICDrug in combo entry is “(0.5)”. Further, under setting [3], the MICDrug in combo entry is given as “(1)”. Also, the MICDrug in combo entry under setting [4] is reported as “(0.0625)”. Further, under setting [5], the MICDrug in combo entry is listed as “(0.5)”. Besides, under setting [6], the MICDrug in combo entry is reported as “(0.5)”.
Regarding `C[C@H]1c2cccc(O)c2C(=O)C2=C(O)[C@]3(O)C(=O)C(C(N)=O)=C(O)[C@@H](N(C)C)[C@@H]3[C@@H](O)[C@@H]21` [Doxycycline, reference compound], the MICDrug in combo entry is, setting by setting: under setting [1], “(0.5)”; under setting [2], “(0.125)”; under setting [3], “(1)”; under setting [4], “(4)”; under setting [5], “(0.25)”; under setting [6], “(0.25)”.
As for `C[C@@H](O)[C@H]1C(=O)N2C(C(=O)O)=C(S[C@@H]3CN[C@H](CNS(N)(=O)=O)C3)[C@H](C)[C@H]12` [Doripenem, reference compound], the MICDrug turned out to be 1. Moreover, the MICDrug in combo entry under setting [1] is given as “(0.5)”. For the same molecule, the MICDrug in combo result under setting [2] is on record as “(0.125)”. For the same molecule, the MICDrug in combo result under setting [3] is “(0.5)”. For the same molecule, the MICDrug in combo result under setting [4] is “(0.0625)”. For the same molecule, the MICDrug in combo result under setting [5] is listed as “(0.5)”. Moreover, the MICDrug in combo entry under setting [6] was “(0.25)”.
For `[H]/N=C(/N)N[C@H]1[C@H](O)[C@@H](O)[C@H](O[C@@H]2O[C@@H](C)[C@](O)(C=O)[C@H]2O[C@@H]2O[C@@H](CO)[C@H](O)[C@@H](O)[C@@H]2NC)[C@@H](N/C(N)=N\[H])[C@@H]1O` [Streptomycin, reference compound], the MICDrug came out at 16. Moreover, under setting [1], the MICDrug in combo result was “(8)”. Under setting [2], the MICDrug in combo result is listed as “(4)”. Moreover, under setting [3], the MICDrug in combo entry is given as “(16)”. Under setting [4], the MICDrug in combo entry was “(16)”. In addition, the MICDrug in combo entry under setting [5] was “(8)”. The MICDrug in combo entry under setting [6] is listed as “(8)”.
For `CO[C@H]1/C=C/O[C@@]2(C)Oc3c(C)c(O)c4c(O)c(c(/C=N/N5CCN(C)CC5)c(O)c4c3C2=O)NC(=O)/C(C)=C\C=C\[C@H](C)[C@H](O)[C@@H](C)[C@@H](O)[C@@H](C)[C@H](OC(C)=O)[C@@H]1C` [Rifampicin, reference compound], the MICDrug amounted to 16. Further, under setting [2], the MICDrug in combo entry was “(8)”. Moreover, under setting [3], the MICDrug in combo result was “(8)”. Moreover, the MICDrug in combo result under setting [4] was “(0.25)”. Besides, the MICDrug in combo result under setting [5] is “(1)”. In addition, the MICDrug in combo result under setting [6] is “(0.0625)”.
Turning to `O=C(N[C@H](CO)[C@H](O)c1ccc([N+](=O)[O-])cc1)C(Cl)Cl` [Chloramphenicol, reference compound], the MICDrug is recorded as 32. In addition, under setting [1], the MICDrug in combo result is listed as “(2)”. For the same molecule, the MICDrug in combo result under setting [2] is reported as “(4)”. In addition, under setting [3], the MICDrug in combo result is reported as “(4)”. For the same molecule, under setting [4], the MICDrug in combo result is recorded as “(4)”. Besides, the MICDrug in combo entry under setting [5] is given as “(8)”. Also, under setting [6], the MICDrug in combo result is recorded as “(2)”.
For `C[C@@H]1O[C@@H]1P(=O)(O)O` [Fosfomycin, reference compound], the MICDrug in combo entry is “(2)” under setting [1]; “(0.125)” under setting [2]; “(8)” under setting [3]; “(8)” under setting [4]; “(1)” under setting [5]; “(2)” under setting [6].
With `CN[C@H](CC(C)C)C(=O)N[C@H]1C(=O)N[C@@H](CC(N)=O)C(=O)N[C@H]2C(=O)N[C@H]3C(=O)N[C@H](C(=O)N[C@H](C(=O)O)c4cc(O)cc(O)c4-c4cc3ccc4O)[C@H](O)c3ccc(c(Cl)c3)Oc3cc2cc(c3O[C@@H]2O[C@H](CO)[C@@H](O)[C@H](O)[C@H]2O[C@H]2C[C@](C)(N)[C@H](O)[C@H](C)O2)Oc2ccc(cc2Cl)[C@H]1O` [Vancomycin, reference compound], the MICDrug turned out to be 256. The MICDrug in combo result under setting [1] is “(8)”. For the same molecule, the MICDrug in combo result under setting [2] is listed as “(2)”. In addition, the MICDrug in combo result under setting [3] is on record as “(128)”. For the same molecule, the MICDrug in combo entry under setting [4] is “(64)”. Also, under setting [5], the MICDrug in combo result is given as “(2)”. Further, the MICDrug in combo entry under setting [6] is recorded as “(4)”.
For the molecule `CO[C@@H]1[C@@H](OC(N)=O)[C@@H](O)[C@H](Oc2ccc3c(O)c(NC(=O)c4ccc(O)c(CC=C(C)C)c4)c(=O)oc3c2C)OC1(C)C` [Novobiocin, reference compound], the MICDrug was found to be 512. Further, the MICDrug in combo result under setting [1] is listed as “(16)”. Also, the MICDrug in combo entry under setting [2] is “(8)”. Moreover, under setting [3], the MICDrug in combo entry is given as “(0.5)”. The MICDrug in combo result under setting [4] is recorded as “(2)”. Further, the MICDrug in combo entry under setting [5] is on record as “(128)”. In addition, under setting [6], the MICDrug in combo result was “(4)”.
Take `NC[C@H]1O[C@H](O[C@H]2[C@H](O)[C@@H](O[C@H]3O[C@H](CO)[C@@H](O)[C@H](N)[C@H]3O)[C@H](N)C[C@@H]2N)[C@H](N)C[C@@H]1O` [Tobramycin, reference compound]: the MICDrug stood at 1. For the same molecule, under setting [1], the MICDrug in combo result is reported as “(1)”. Under setting [2], the MICDrug in combo result was “(1)”. Under setting [3], the MICDrug in combo result is “(1)”. The MICDrug in combo entry under setting [4] is on record as “(1)”. The MICDrug in combo result under setting [5] is reported as “(1)”. In addition, under setting [6], the MICDrug in combo result was “(1)”.
As to `COc1c(N2C[C@@H]3CCCN[C@@H]3C2)c(F)cc2c(=O)c(C(=O)O)cn(C3CC3)c12` [Moxifloxacin, reference compound], the MICDrug is on record as 1. Also, under setting [1], the MICDrug in combo entry is “(0.125)”. The MICDrug in combo entry under setting [2] is given as “(1)”. The MICDrug in combo result under setting [3] is “(0.5)”. In addition, the MICDrug in combo result under setting [4] is reported as “(1)”. Also, the MICDrug in combo result under setting [5] was “(0.25)”. The MICDrug in combo entry under setting [6] was “(0.125)”.
For Gentamicin [reference compound], the MICDrug is 2. The MICDrug in combo result under setting [1] is “(2)”. Further, the MICDrug in combo entry under setting [2] is reported as “(4)”. The MICDrug in combo entry under setting [3] is reported as “(2)”. Under setting [4], the MICDrug in combo entry was “(2)”. The MICDrug in combo entry under setting [5] was “(4)”. Moreover, the MICDrug in combo result under setting [6] is listed as “(2)”.

Source of the values: US20210261621A1, “Preparation of Dilipid Polymixins and Use Thereof as Antimicrobial Adjuvants” (priority 2018, published 2021).
